Measured values published in patent US20100022457A1 (Bristol-Myers Squibb Company, priority 2006, published 2010).
Where a SMILES comes first, the peptide text is derived from it. [ ]: non-standard residue; d: D form. Ala(6-(2-MePh)pyridin-3-yl) = Cc1ccccc1-c1ccc(C[C@H](N)C(=O)O)cn1; Bip(2'-Et-4'-OMe) = CCc1cc(OC)ccc1-c1ccc(C[C@H](N)C(=O)O)cc1; αMePhe(2-F) = C[C@](N)(Cc1ccccc1F)C(=O)O; Aib = CC(C)(N)C(=O)O

Experiment: Solubility of the compound of SEQ ID NO:9 in the presence of Zn(II) / Zn adduct
Format: physicochemical
Conditions: pH 6.8, 50 mM phosphate buffer
Protocol: The concentration of the compound of SEQ ID NO:9 was analyzed by a Waters HPLC system (Waters 2690 Separations Module and Waters 996 Photodiode Array Detector). A gradient method was used where solvent A is 0.05% trifluoroacetic acid (TFA, Sigma) in water, and solvent B is 0.05% TFA in acetone nitrile (ACN, Sigma). Light at a wavelength of 220 nm was used to detect the absorption of the compound of SEQ ID NO:9.
Once the Zn/Compound of SEQ ID NO:9 adduct was formed, formulation development studies were conducted in order to evaluate the solubility of the compound of SEQ ID NO:9 in the presence of Zn(II). An excess amount of the compound of SEQ ID NO:9 was suspended in pH 6.8, 50 mM phosphate buffer. The suspension was then placed on an orbital shaker (Model, 100 RPM) at ambient temperature for 12 hours. The suspension was then centrifuged (Model, speed) and the saturated the clear supernatant of the compound of SEQ ID NO:9 was collected into 10 ml centrifuge tubes. A predetermined amount of zinc acetate solution (50 mM, pH 6.8 phosphate buffer) was added into the saturated solution and then precipitated. The concentration of the compound of SEQ ID NO:9 in solution was obtained by centrifuging the suspension and analyzing the clear supernatants by HPLC. […]

solubility at 12 h (read-out: concentration of saturated solution (solubility)): 17 µg/mL
Structure (SMILES): CCc1cc(OC)ccc1-c1ccc(C[C@H](NC(=O)[C@H](CC(=O)O)NC(=O)[C@H](CO)NC(=O)[C@@H](NC(=O)[C@](C)(Cc2ccccc2F)NC(=O)[C@@H](NC(=O)CNC(=O)[C@H](CCC(=O)O)NC(=O)C(C)(C)NC(=O)[C@@H](N)Cc2c[nH]cn2)[C@@H](C)O)[C@@H](C)O)C(=O)N[C@@H](Cc2ccc(-c3ccccc3C)nc2)C(N)=O)cc1 [SEQ ID NO: 9] (H-H[Aib]EGT[αMePhe(2-F)]TSD[Bip(2'-Et-4'-OMe)][Ala(6-(2-MePh)pyridin-3-yl)]-NH2)
apparent solubility with addition of Zn (II): continued to decrease until below the detection limit of HPLC
